pIC50: −log10 of the molar value. Like-named read-outs stand apart in the source and are kept apart here. Residues, ends and D or L forms follow the SMILES beside them. *: point of attachment. X2 = CC[C@@]1(O)C(=O)OCc2c1cc1n(c2=O)Cc2c-1nc1cc(F)c(C)c3c1c2[C@@H](NC(=O)O[C@H](C)[C@@H](C)S*)CC3; X4 = CC[C@@]1(O)C(=O)OCc2c1cc1n(c2=O)Cc2c-1nc1cc(F)c(C)c3c1c2[C@@H](NC(=O)O[C@@H](C)[C@H](C)S*)CC3; X6 = CC[C@@]1(O)C(=O)OCc2c1cc1n(c2=O)Cc2c-1nc1cc(F)c(C)c3c1c2[C@@H](NC(=O)OCC1(S*)CCC1)CC3
Assays:
[1] = tested on: DLD-1 WT cells; test: cells; assay type: cell-based
Procedure: (§1) Cells were plated in 96 well black walled-clear bottom plates (Griener), DLD-1 WT cells at 2500 cells per well, FaDu, and HeLa cells at 5000 cells per well, and HCT116 at 3000 cells per well, in growth media containing 10% FBS. Cells were allowed to adhere at room temperature for 60 minutes before returning to a 37 C, 5% CO2 incubator. After 24 hours, media was removed and replaced with fresh growth media containing various drug concentrations. Each drug concentration was added in triplicate. Non-drug treated controls contained growth media only. Cells were returned to the incubator. Ninety-six hours after addition of drug, cells were fixed with 4% paraformaldehyde for 20 minutes and stained with Hoechst at 1 ug/mL. The plates were imaged on a Cytation 5 auto imager (BioTek) and cells were counted using CellProfiler (http://cellprofiler.org). The percent cell growth delay was calculated and data plotted using GraphPad Prism

[2] = tested on: FaDu; test: cells; assay type: cell-based
Procedure: as §1

[3] = tested on: HeLa cells; test: cells; assay type: cell-based
Procedure: as §1

[4] = tested on: HCT116; test: cells; assay type: cell-based, human
Procedure, shortened: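 DLD-1 WT (2500/well), FaDu and HeLa (5000/well) and HCT116 (3000/well) were grown in 10% FBS media and dosed in triplicate 24 h after plating. After 96 h of drug exposure at 37 °C, cells were fixed, Hoechst-stained and counted by imaging; percent growth delay was calculated versus untreated controls.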

[5] = Glutathione cleavage study; assay type: in vitro ADME; details: Tris buffer with 10 mM glutathione, Glutathione Challenge (10 mM), 100 μM conjugate, Tris pH 7.5, 37° C.
Procedure, shortened: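 Conjugate stocks at 20 mM in 100% DMSO were diluted in 100 mM Tris, pH 7.5, to a final 100 μM. Freshly made glutathione was added to 10 mM, and samples were incubated at 37° C. for up to 24 hrs. Samples were extracted with phosphoric acid and acetonitrile/0.1% TFA, centrifuged, and analyzed by HPLC, with peak areas compared to the time-0 conjugate peak.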

[6] = Plasma stability studies; assay type: in vitro ADME; details: rat plasma, 100 μM conjugate, 37° C.
Procedure, shortened: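 Conjugate at 100 μM final in rat plasma (diluted from DMSO stock via 100 mM Tris, pH 7.5), incubated at 37° C for up to 24 h, sampled at 0, 4 and 24 h. Samples acid/acetonitrile-extracted and analysed by HPLC; remaining conjugate expressed as peak area relative to time 0 ×100.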

`CC[C@@]1(O)C(=O)OCc2c1cc1n(c2=O)Cc2c-1nc1cc(F)c(C)c3c1c2[C@@H](N)CC3` [R^8H-5, (10S,23S)-23-amino-10-ethyl-18-fluoro-10-hydroxy-19-methyl-8-oxa-4,15-diazahexacyclo[14.7.1.02,14.04,13.06,11.020,24]tetracosa-1,6(11),12,14,16(24),17,19-heptaene-5,9-dione; methanesulfonic acid, reference compound] gave a pIC50 ([1]; Homo sapiens, DLD-1 WT cells, 96 h after addition of drug, IC = incomplete curve, read-out: DLD-1 (IC50)) of 9.89, a pIC50 ([2]; Homo sapiens, FaDu cells, 96 h after addition of drug, read-out: FaDu (IC50)) of 10.40 and a pIC50 ([3]; Homo sapiens, HeLa cells, 96 h after addition of drug, read-out: HeLa (IC50)) of 9.92. The pIC50 ([4]; Homo sapiens, HCT-116, HCT116 cells, 96 h after addition of drug, read-out: HCT116 (IC50)) was 10.30.
Compound `CC[C@H](C)[C@H](NC(=O)[C@@H]1CCCN1C(=O)[C@H](CC(N)=O)NC(=O)[C@H](CCC(N)=O)NC(=O)[C@H](CCC(=O)O)NC(=O)[C@H](C)N)C(=O)N[C@@H](Cc1ccc(O)cc1)C(=O)N[C@@H](Cc1c[nH]c2ccccc12)C(=O)N[C@@H](C)C(=O)N[C@@H](CCCNC(=N)N)C(=O)N[C@@H](Cc1ccc(O)cc1)C(=O)N[C@@H](C)C(=O)N[C@@H](CC(=O)O)C(=O)N[C@@H](Cc1c[nH]c2ccccc12)C(=O)N[C@@H](CC(C)C)C(=O)N[C@@H](Cc1ccccc1)C(=O)N[C@H](C(=O)N[C@H](C(=O)N1CCC[C@H]1C(=O)N[C@@H](CC(C)C)C(=O)N[C@@H](CC(C)C)C(=O)N[C@@H](CC(C)C)C(=O)N[C@@H](CC(C)C)C(=O)N[C@@H](CC(=O)O)C(=O)N[C@@H](CC(C)C)C(=O)N[C@@H](C)C(=O)N[C@@H](CC(C)C)C(=O)N[C@@H](CC(C)C)C(=O)N[C@H](C(=O)N[C@@H](CC(=O)O)C(=O)N[C@@H](C)C(=O)N[C@@H](CC(=O)O)C(=O)N[C@@H](CCC(=O)O)C(=O)N[C@@H](CSSC1(COC(=O)N[C@H]2CCc3c(C)c(F)cc4nc5c(c2c34)Cn2c-5cc3c(c2=O)COC(=O)[C@]3(O)CC)CCC1)C(=O)NCC(=O)O)C(C)C)[C@@H](C)O)[C@@H](C)O` [Compound 3] (H-AEQNPIYWARYADWLFTTPLLLLDLALLVDADEC(X6)G-OH; N-terminus and C-terminus assumed) has a pIC50 ([2]; FaDu cells, 96 h after addition of drug, read-out: FaDu (IC50)) of 8.23, a pIC50 ([3]; HeLa cells, 96 h after addition of drug, read-out: HeLa (IC50)) of 8.12 and a pIC50 ([4]; HCT116 cells, 96 h after addition of drug, read-out: HCT116 (IC50)) of 8.08.
Work on `CC[C@H](C)[C@H](NC(=O)[C@@H]1CCCN1C(=O)[C@H](CC(N)=O)NC(=O)[C@H](CCC(N)=O)NC(=O)[C@H](CCC(=O)O)NC(=O)[C@H](C)N)C(=O)N[C@@H](Cc1ccc(O)cc1)C(=O)N[C@@H](Cc1c[nH]c2ccccc12)C(=O)N[C@@H](C)C(=O)N[C@@H](CCCNC(=N)N)C(=O)N[C@@H](Cc1ccc(O)cc1)C(=O)N[C@@H](C)C(=O)N[C@@H](CC(=O)O)C(=O)N[C@@H](Cc1c[nH]c2ccccc12)C(=O)N[C@@H](CC(C)C)C(=O)N[C@@H](Cc1ccccc1)C(=O)N[C@H](C(=O)N[C@H](C(=O)N1CCC[C@H]1C(=O)N[C@@H](CC(C)C)C(=O)N[C@@H](CC(C)C)C(=O)N[C@@H](CC(C)C)C(=O)N[C@@H](CC(C)C)C(=O)N[C@@H](CC(=O)O)C(=O)N[C@@H](CC(C)C)C(=O)N[C@@H](C)C(=O)N[C@@H](CC(C)C)C(=O)N[C@@H](CC(C)C)C(=O)N[C@H](C(=O)N[C@@H](CC(=O)O)C(=O)N[C@@H](C)C(=O)N[C@@H](CC(=O)O)C(=O)N[C@@H](CCC(=O)O)C(=O)N[C@@H](CSS[C@@H](C)[C@H](C)OC(=O)N[C@H]1CCc2c(C)c(F)cc3nc4c(c1c23)Cn1c-4cc2c(c1=O)COC(=O)[C@]2(O)CC)C(=O)NCC(=O)O)C(C)C)[C@@H](C)O)[C@@H](C)O` [Compound 5] (H-AEQNPIYWARYADWLFTTPLLLLDLALLVDADEC(X4)G-OH; N-terminus and C-terminus assumed) yielded a pIC50 ([1]; 96 h) of 9.08, a pIC50 ([2]; 96 h) of 10.22 and a pIC50 ([3]; 96 h) of 10.15. It also gave a pIC50 ([4]; 96 h) of 9.92.
`CC[C@H](C)[C@H](NC(=O)[C@@H]1CCCN1C(=O)[C@H](CC(N)=O)NC(=O)[C@H](CCC(N)=O)NC(=O)[C@H](CCC(=O)O)NC(=O)[C@H](C)N)C(=O)N[C@@H](Cc1ccc(O)cc1)C(=O)N[C@@H](Cc1c[nH]c2ccccc12)C(=O)N[C@@H](C)C(=O)N[C@@H](CCCNC(=N)N)C(=O)N[C@@H](Cc1ccc(O)cc1)C(=O)N[C@@H](C)C(=O)N[C@@H](CC(=O)O)C(=O)N[C@@H](Cc1c[nH]c2ccccc12)C(=O)N[C@@H](CC(C)C)C(=O)N[C@@H](Cc1ccccc1)C(=O)N[C@H](C(=O)N[C@H](C(=O)N1CCC[C@H]1C(=O)N[C@@H](CC(C)C)C(=O)N[C@@H](CC(C)C)C(=O)N[C@@H](CC(C)C)C(=O)N[C@@H](CC(C)C)C(=O)N[C@@H](CC(=O)O)C(=O)N[C@@H](CC(C)C)C(=O)N[C@@H](C)C(=O)N[C@@H](CC(C)C)C(=O)N[C@@H](CC(C)C)C(=O)N[C@H](C(=O)N[C@@H](CC(=O)O)C(=O)N[C@@H](C)C(=O)N[C@@H](CC(=O)O)C(=O)N[C@@H](CCC(=O)O)C(=O)N[C@@H](CSS[C@H](C)[C@@H](C)OC(=O)N[C@H]1CCc2c(C)c(F)cc3nc4c(c1c23)Cn1c-4cc2c(c1=O)COC(=O)[C@]2(O)CC)C(=O)NCC(=O)O)C(C)C)[C@@H](C)O)[C@@H](C)O` [Compound 4] (H-AEQNPIYWARYADWLFTTPLLLLDLALLVDADEC(X2)G-OH; N-terminus and C-terminus assumed) showed a pIC50 ([1]; 96 h) of 9.10, a pIC50 ([2]; 96 h) of 10.22 and a pIC50 ([3]; 96 h) of 10.15. The pIC50 ([4]; 96 h) was 10.00.
Compound `CC[C@@]1(O)C(=O)OCc2c1cc1n(c2=O)Cc2c-1nc1cc(F)c(C)c3c1c2[C@@H](NC(=O)O[C@H]1CC[C@H](SSC[C@H](NC(=O)[C@H](Cc2c[nH]c4ccccc24)NC(=O)[C@H](CC(C)C)NC(=O)[C@H](CC(C)C)NC(=O)[C@H](CC(=O)O)NC(=O)[C@H](CC(C)C)NC(=O)[C@H](CC(C)C)NC(=O)[C@H](CC(C)C)NC(=O)[C@@H](NC(=O)[C@H](CC(=O)O)NC(=O)[C@@H](NC(=O)[C@@H]2CCCN2C(=O)[C@H](Cc2ccccc2)NC(=O)[C@H](CC(C)C)NC(=O)[C@H](CC(C)C)NC(=O)[C@H](CC(=O)O)NC(=O)[C@H](CC(C)C)NC(=O)[C@H](Cc2ccc(O)cc2)NC(=O)[C@H](C)NC(=O)[C@H](CCCNC(=N)N)NC(=O)[C@H](Cc2c[nH]c4ccccc24)NC(=O)[C@@H]2CCCN2C(=O)[C@H](CC(N)=O)NC(=O)[C@H](CCC(N)=O)NC(=O)[C@H](CC(=O)O)NC(=O)[C@H](CC(=O)O)NC(=O)[C@H](C)N)[C@@H](C)O)[C@@H](C)O)C(=O)NCC(=O)O)CC1)CC3` [Compound 26] has a pIC50 ([4]; 96 h) of 7.06, a remaining at 4 h, 100 µM [5] of 75.8% and a remaining at 24 h, 100 µM [5] of 32.1%. For the same compound, the remaining at 4 h, 100 µM [6] was 105% and the remaining at 24 h, 100 µM [6] was 112%.
Work on `CC[C@@]1(O)C(=O)OCc2c1cc1n(c2=O)Cc2c-1nc1cc(F)c(C)c3c1c2[C@@H](NC(=O)O[C@@H]1CCCCC[C@H]1SSC[C@H](NC(=O)[C@H](Cc1c[nH]c2ccccc12)NC(=O)[C@H](CC(C)C)NC(=O)[C@H](CC(C)C)NC(=O)[C@H](CC(=O)O)NC(=O)[C@H](CC(C)C)NC(=O)[C@H](CC(C)C)NC(=O)[C@H](CC(C)C)NC(=O)[C@@H](NC(=O)[C@H](CC(=O)O)NC(=O)[C@@H](NC(=O)[C@@H]1CCCN1C(=O)[C@H](Cc1ccccc1)NC(=O)[C@H](CC(C)C)NC(=O)[C@H](CC(C)C)NC(=O)[C@H](CC(=O)O)NC(=O)[C@H](CC(C)C)NC(=O)[C@H](Cc1ccc(O)cc1)NC(=O)[C@H](C)NC(=O)[C@H](CCCNC(=N)N)NC(=O)[C@H](Cc1c[nH]c2ccccc12)NC(=O)[C@@H]1CCCN1C(=O)[C@H](CC(N)=O)NC(=O)[C@H](CCC(N)=O)NC(=O)[C@H](CC(=O)O)NC(=O)[C@H](CC(=O)O)NC(=O)[C@H](C)N)[C@@H](C)O)[C@@H](C)O)C(=O)NCC(=O)O)CC3` [Compound 22] yielded a pIC50 ([4]; 96 h) of 8.23, a remaining at 4 h, 100 µM [5] of 65.8% and a remaining at 24 h, 100 µM [5] of 12.3%. For the same compound, the remaining at 4 h, 100 µM [6] was 106% and the remaining at 24 h, 100 µM [6] was 105%.
